Tests used:
TLR4 = assay: LPS-induced PMN transendothelial migration, PMNs from wild type C3H/HeN mice; format: cell-based
Experimental: (§1) To obtain mice neutrophils from TLR4-deficient [TLR4(−/−)] C3H/HeJ mice and wild type C3H/HeN mice, inflammation was induced by 0.1 ml of uric acid solution into the peritoneal cavity of the mouse. The uric acid solution (noncrystalline form) was prepared by mixing with saline (10% [wt/vol]) and sonicated for 10 min. Immediately before inoculation, the milky white precipitated uric acid solution was shaken vigorously. Peritoneal exudate cells were harvested 4, 18, or 24 h after injection by two lavages of the peritoneal cavity with 5 ml of cold phosphate-buffered saline (PBS; total volume, 10 ml). Uric acid-induced peritoneal cells (UAPMN) were washed by centrifugation at 200×g for 10 min at 4° C. Followed by hypotonic lysis to eliminate red blood cells, centrifugation and an additional wash were performed. The cells were then resuspended in Krebs-Ringer phosphate buffer (KRG; pH 7.3). The numbers and populations of peritoneal exudate cells were determined by staining the nuclei with Turk reagent and by cytospin centrifugation followed by May-Grünwald-Giemsa staining, respectively. Uric acid injection into the peritoneal cavity gave a yield of 1 to 2×10^7 cells/mouse depending on time of incubation (4 hr). The levels of purity of the uric acid-induced PMN were 95% after 4 h postinjection. Viability of the isolated neutrophils exceeded 95% as determined by trypan blue exclusion. The PMN from TLR4(−/−) C3H/HeJ mice and wild type C3H/HeN mice were then used for PMN transmigration Assay.
Neutrophils from human were isolated blood that was drawn in a syringe containing preservative-free heparin (20 U/ml final), and mixed with an equal volume of PBS containing 3% dextran and then incubated for 20 min at room temperature. The leukocyte-rich plasma (upper layer) was collected and pellet cells was obtained from the plasma by centrifuge and resuspended in 0.9% NaCl. Layer 10 ml Ficoll-Hypaque solution beneath the cell suspension. After centrifuge 1500×g for 20 min, aspirate the Ficoll-Hypaque layer, leaving the neutrophil/RBC pellet. Cells were subjected to hypotonic lysis by resuspending each neutrophil/RBC pellet in cold 0.2% NaCl for 30 sec. At the end of this period, restore isotonicity by adding ice-cold 1.6% NaCl. After centrifuge, resuspend cells in ice-cold PBS/glucose buffer. Neutrophils from mice were isolated from the peritoneum as previously described. See, e.g., Rabes et al., Curr Top Microbiol Immunol 397:215-227 (2016). The cell concentration was adjusted to […]. The viability of the isolated neutrophils exceeded 95%, as determined by Trypan blue exclusion.
Transendothelial migration was performed by using a Transwell system. Transwell filters were pre-seeded with HUVEC monolayers for 24 hrs and transferred to clean 24-well plates. HUVECs were washed twice with DPBS, 500 μl of ECM was added to the Transwell filter compartment and 10^6 neutrophils were then added in upper chamber. Transendothelial migration was stimulated by addition of LPS to the lower chamber to a final concentration of 1 μg/ml. Cells were incubated with the endothelial cells for 1 h at 37° C. At the conclusion of the incubation, migrated cells were collected from the lower chamber and counted in a hemacytometer in triplicate. Percent PMN transmigration was calculated by dividing the number of PMN recovered from the lower chamber by the number of PMN initially added.
PMN transendothelial migration plays an important role in early stage of atherogenesis. […].

[1] = system: PMNs isolated from TLR4(−/−) mice C3H/HeJ; assay: LPS-induced PMN transendothelial migration, PMNs from TLR4(-/-) C3H/HeJ mice; format: cell-based; settings: LPS 1 μg/ml, HUVEC monolayer Transwell
Experimental: as §1, with “Followed by hypotonic lysis to eliminate red blood cells, centrifugation and an additional wash were performed. The cells were then resuspended in Krebs-Ringer phosphate buffer (KRG; pH 7.3).” left out, “Uric acid injection into the peritoneal cavity gave a yield of 1 to 2×10^7 cells/mouse depending on time of incubation (4 hr). The levels of purity of the uric acid-induced PMN were 95% after 4 h postinjection.” left out, “The PMN from TLR4(−/−) C3H/HeJ mice and wild type C3H/HeN mice were then used for PMN transmigration Assay.” left out
Neutrophils from human were isolated blood that was drawn in a syringe containing preservative-free heparin (20 U/ml final), and mixed with an equal volume of PBS containing 3% dextran and then incubated for 20 min at room temperature. […] The viability of the isolated neutrophils exceeded 95%, as determined by Trypan blue exclusion. […]

[2] = system: caspase-3 activity in HUVECs; format: cell-based, human; settings: compared to control cells
Experimental: Cell apoptosis was detected by using commercial terminal deoxynucleotidyl transferase-dUTP nick end labeling (TUNEL) and caspase-3 activity kits, i.e., Apo-BrdU in Situ DNA Fragmentation Assay Kit (BioVision) and NucView™ 488 Caspase-3 Enzyme Substrate (Biotium). In brief, after incubation with M199 media in the presence or absence of […] various PLY peptides, at 37° C., 5% CO2 for 1 hour, HUVECs were washed with PBS and fixed with fixation buffer on ice for 20 min. Cells were then soaked in 70% alcohol for 1 hr. After 2 times of wash by washing buffer, cells were incubated in DNA labeling solution for 60 min at 37° C. Cells were then treated with rinse buffer and incubated with antibody buffer for 30 min at room temperature. The cell nuclei were stained with propidium iodide for 30 min. Samples were observed by fluorescent microscopeand photographed charge-coupled device (CCD) camera.
As to caspase-3 activity assay, after variant peptide treatments, HUVECs were washed by PBS. Cells were then reacted with Caspase-3 Enzyme Substrate 1 mM for 30 min at room temperature. Cells were then observed by fluorescent microscopeand photographed CCD camera.

HUVEC = settings: treated for 1, 4 and 7 hours (FIG. 16)

QDLTAHFTTSIPLKGNVRNLSVKIRECTGLAWEWWRTVYEKTDLPLVRKRTISIWGTTLYPQVEDKVEND [C70PLY4]
PMNs migration, WT mice model (FIG. 10) (TLR4; PMNs from C3H/HeN mice, LPS 1 μg/ml, HUVEC monolayer Transwell): significant inhibition of PMNs cell migration
LPS induced PMN migration (FIGS. 11-12) (TLR4; WT mice model, LPS-induced): inhibitory effects
PMNs migration, TLR4(−/−) mice model (FIG. 10) [1]: this phenomenon did not occur
apoptotic potential, caspase-3 activity assay [2]: no apoptotic potential
cell morphology of HUVEC (HUVEC): did not affect the cell morphology
